Laboratory results from the supplement of paper PMC8149375.

Key:
Conditions in all cases: treatment: drug alone; 5 days
UO-31 [1] = experiment: AUC of dose-response viability curve, drug alone (arbitrary (AUC of normalised viability)); higher = less growth inhibition
Procedure: (§1)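 Primary HTS: 8 RCC cell lines treated with 8 doses (up to 10 uM) of each library drug alone for 5 days; viability read by CellTiter-Glo and normalised to DMSO. GI50 was fitted with XLfit (4-parameter), AUC is the area under the dose-response curve, and minimum viability is the lowest fraction of DMSO viability across doses.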

TK-10 [2] = experiment: as above
Procedure: as §1

SN12C [3] = experiment: as above
Procedure: as §1

769-P [4] = experiment: as above
Procedure: as §1

786-O [5] = experiment: as above
Procedure: as §1

A498 [6] = experiment: as above
Procedure: as §1

CAKI-1 [7] = experiment: as above
Procedure: as §1

ACHN [8] = experiment: as above
Procedure: as §1

UO-31 [9] = experiment: minimum viability across doses, drug alone, relative to DMSO (fraction); higher = less growth inhibition
Procedure: as §1

TK-10 [10] = experiment: as above
Procedure: as §1

SN12C [11] = experiment: as above
Procedure: as §1

769-P [12] = experiment: as above
Procedure: as §1

786-O [13] = experiment: as above
Procedure: as §1

A498 [14] = experiment: as above
Procedure: as §1

CAKI-1 [15] = experiment: as above
Procedure: as §1

ACHN [16] = experiment: as above
Procedure: as §1

UO-31 [17] = experiment: GI50, drug alone; higher = less potent
Procedure: as §1

TK-10 [18] = experiment: GI50, drug alone; higher = less potent
Procedure: as §1

SN12C [19] = experiment: GI50, drug alone; higher = less potent
Procedure: as §1

769-P [20] = experiment: GI50, drug alone; higher = less potent
Procedure: as §1

786-O [21] = experiment: GI50, drug alone; higher = less potent
Procedure: as §1

A498 [22] = experiment: GI50, drug alone; higher = less potent
Procedure: as §1

CAKI-1 [23] = experiment: GI50, drug alone; higher = less potent
Procedure: as §1

ACHN [24] = experiment: GI50, drug alone; higher = less potent
Procedure: as §1

Row | Structure (SMILES) | AUC of dose-response viability curve (UO-31 [1]) | AUC of dose-response viability curve (TK-10 [2]) | AUC of dose-response viability curve (SN12C [3]) | AUC of dose-response viability curve (769-P [4]) | AUC of dose-response viability curve (786-O [5]) | AUC of dose-response viability curve (A498 [6]) | AUC of dose-response viability curve (CAKI-1 [7]) | AUC of dose-response viability curve (ACHN [8]) | minimum viability across doses (UO-31 [9]) | minimum viability across doses (TK-10 [10]) | minimum viability across doses (SN12C [11]) | minimum viability across doses (769-P [12]) | minimum viability across doses (786-O [13]) | minimum viability across doses (A498 [14]) | minimum viability across doses (CAKI-1 [15]) | minimum viability across doses (ACHN [16]) | GI50, drug alone (UO-31 [17]) | GI50, drug alone (TK-10 [18]) | GI50, drug alone (SN12C [19]) | GI50, drug alone (769-P [20]) | GI50, drug alone (786-O [21]) | GI50, drug alone (A498 [22]) | GI50, drug alone (CAKI-1 [23]) | GI50, drug alone (ACHN [24])
1 | CS(=O)(=O)O.Cc1ccc(NC(=O)c2ccc(CN3CCN(C)CC3)cc2)cc1Nc1nccc(-c2cccnc2)n1 [Imatinib Mesylate] | 5.21 | 3.25 | 3.55 | 3.45 | 2.83 | 3.89 | 3.61 | 3.71 | 1.1 | 0.861 | 0.775 | 0.898 | 0.399 | 0.973 | 0.965 | 0.855 | > 10 µM | > 10 µM | > 10 µM | > 10 µM | 8.42 µM | > 10 µM | > 10 µM | > 10 µM
2 | O=C(Nc1c[nH]nc1-c1nc2cc(CN3CCOCC3)ccc2[nH]1)NC1CC1 [AT9283] | 2.05 | 2.1 | 2.63 | 1.97 | 1.58 | 2.74 | 2.22 | 1.86 | 0.00945 | 0.0596 | 0.00789 | 0.0255 | 0.00681 | 0.0125 | 0.0418 | 0.0159 | 0.25 µM | 0.456 µM | 1.1 µM | 0.241 µM | 0.1 µM | 0.777 µM | 0.414 µM | 0.344 µM
3 | Cc1ccc(NC(=O)c2ccc(CN3CCN(C)CC3)cc2)cc1Nc1nc(-c2cccnc2)cs1 [Masitinib (AB1010)] | 4.02 | 3.39 | 3.01 | 3.32 | 3.22 | 3.2 | 3.47 | 3.23 | 1 | 0.651 | 0.292 | 0.749 | 0.168 | 0.635 | 0.784 | 0.482 | > 10 µM | > 10 µM | 5.8 µM | > 10 µM | 5.57 µM | > 10 µM | > 10 µM | 9.54 µM
4 | Cc1cc2c(C(C)C)c(O)c(O)c(C=O)c2c(O)c1-c1c(C)cc2c(C(C)C)c(O)c(O)c(C=O)c2c1O [AT101] | 3.8 | 2.36 | 3.2 | 3.66 | 1.66 | 3.74 | 3.35 | 3.02 | 0.778 | 0.542 | 0.741 | 0.779 | 0.212 | 0.836 | 0.121 | 0.2 | > 10 µM | > 10 µM | > 10 µM | > 10 µM | > 10 µM | > 10 µM | 6.05 µM | 5.95 µM
5 | CCN1CCN(c2ccc(Nc3cc(N(C)C(=O)Nc4c(Cl)c(OC)cc(OC)c4Cl)ncn3)cc2)CC1 [BGJ398 (NVP-BGJ398)] | 2.98 | 2.68 | 2.91 | 3.22 | 2.7 | 3.84 | 2.1 | 2.28 | 0.401 | 0.327 | 0.385 | 0.631 | 0.218 | 0.92 | 0.133 | 0.111 | 7.58 µM | 3.23 µM | 6.98 µM | > 10 µM | 2.25 µM | > 10 µM | 0.519 µM | 0.747 µM
